# Active and inactive are the calls of the source.
# What was measured:
# [1] = molecular target: T1, DNA repair protein RAD52 homolog (Homo sapiens, UniProt P43351); type: functional, biochemical
# T1 sequence (P43351 whole entry): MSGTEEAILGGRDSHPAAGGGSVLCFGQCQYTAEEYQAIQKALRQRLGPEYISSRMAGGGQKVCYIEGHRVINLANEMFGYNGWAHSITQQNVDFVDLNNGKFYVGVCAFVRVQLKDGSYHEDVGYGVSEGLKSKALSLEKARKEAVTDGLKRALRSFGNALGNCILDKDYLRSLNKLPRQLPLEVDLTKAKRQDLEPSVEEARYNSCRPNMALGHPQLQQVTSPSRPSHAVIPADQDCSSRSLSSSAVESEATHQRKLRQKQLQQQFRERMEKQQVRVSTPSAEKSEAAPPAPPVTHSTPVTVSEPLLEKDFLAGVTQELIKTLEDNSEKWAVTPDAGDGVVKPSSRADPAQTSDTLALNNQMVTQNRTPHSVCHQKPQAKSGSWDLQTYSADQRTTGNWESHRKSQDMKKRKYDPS
# [2] = HepG2 cell cytotoxicity, dose response, cytotoxicity control, ATP luminescence, cherry-pick, set 6 (AID 1053125); type: functional, cell-based
# [3] = cells; settings: HEK293
# [4] = inhibitors of intracellular T. cruzi replication, confirmation, NIH3T3 host cells, beta-gal luminescence (AID 2044); type: functional, cell-based;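 note: intracellular parasites grown in NIH/3T3 mouse fibroblasts as host cells; luminescent beta-galactosidase reporter signal from transgenic T. cruzi replicating inside host cells; inhibitors lower the luminescence signal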
# [5] = cytotoxicity toward NIH3T3 fibroblasts, dose response, counter-screen, cell-based, ATP luminescence, mouse fibroblasts (AID 2010); type: functional;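 note: cells exposed to compound for about 90 hours before reading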
# [6] = molecular target: COUP transcription factor 2 (Homo sapiens, UniProt P24468); assay: Luminescence-based cell-based high throughput dose response assay to identify inhibitors of COUP-TFII (NR2F2).; type: functional;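 note: HEK293 cells transiently cotransfected with COUP-TFII expression vector and reporter; luciferase reporter luminescence driven by COUP-TFII from the pX2-168 reporter plasmid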
# Chain of COUP transcription factor 2 (P24468 whole entry): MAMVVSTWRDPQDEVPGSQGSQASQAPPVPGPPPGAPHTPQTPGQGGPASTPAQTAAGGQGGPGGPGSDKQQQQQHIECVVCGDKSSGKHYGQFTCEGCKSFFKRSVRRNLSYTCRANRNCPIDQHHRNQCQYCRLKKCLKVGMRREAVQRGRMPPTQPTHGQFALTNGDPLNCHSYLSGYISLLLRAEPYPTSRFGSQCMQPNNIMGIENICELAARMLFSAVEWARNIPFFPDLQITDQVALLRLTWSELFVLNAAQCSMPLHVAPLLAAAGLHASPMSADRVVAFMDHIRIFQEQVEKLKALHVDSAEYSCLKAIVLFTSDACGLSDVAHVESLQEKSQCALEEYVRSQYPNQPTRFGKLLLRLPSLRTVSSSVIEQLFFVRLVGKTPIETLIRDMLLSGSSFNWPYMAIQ
# [7] = tested on: HEK293; assay: inhibitors of LMP1-driven NF-kB reporter, dose response, cell-based, HEK293, luciferase, cherry-pick (AID 588343); type: functional; settings: Homo sapiens
# [8] = Shn3 3'UTR reporter inhibitors, dose response, cell-based, Clone20 osteoblasts, firefly luciferase, cherry-picked (AID 624132); type: functional;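 note: firefly luciferase luminescence from reporter carrying the Shn3 3'UTR in osteoblasts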
# [9] = HepG2 cell cytotoxicity, dose response, cytotoxicity control for Shn3 inhibitor project, CellTiter-Glo, cherry-picked (AID 624134); type: functional, cell-based
# [10] = control 3'UTR Renilla luciferase suppression, dose response, counter-screen for Shn3 inhibitor project, cell-based, Clone20-Shn3RL, cherry-picked (AID 624133); type: functional
# [11] = molecular target: T2, Interleukin-8 (Homo sapiens, UniProt P10145); assay: Dose Response confirmation of uHTS small molecule hits for cystic fibrosis induced NFkb Inhibitors in a TNFa-induced IL8 counterscreen.; type: functional; settings: read-out: IC50_Mean
# T2 sequence (P10145 whole entry): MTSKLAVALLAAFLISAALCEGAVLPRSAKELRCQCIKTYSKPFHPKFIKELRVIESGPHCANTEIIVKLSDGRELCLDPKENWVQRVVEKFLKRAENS
# [12] = molecular target: T2, Interleukin-8; assay: Dose Response confirmation of uHTS small molecule hits for cystic fibrosis induced NFkb Inhibitors in a PAF-induced IL8 counterscreen.; type: functional; settings: read-out: IC50_Mean
# [13] = reduction of Shn3 3'UTR firefly luciferase signal, dose response, Schnurri-3 inhibitor project, cell-based, Clone20 osteoblasts, cherry-pick, set 2 (AID 720490); type: functional;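 note: actives lower the luminescence signal as inhibitors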
# [14] = inhibitors of control Renilla luciferase reporter, dose response, counter-screen for Shn3 3'UTR targeting project, Clone20-Shn3RL cells, dual-Glo, cherry-pick, set 2 (AID 720724); type: functional, cell-based; settings: Dual-Go Shn3RL
# [15] = HepG2 cell cytotoxicity, dose response, cytotoxicity control, ATP luminescence, cherry-pick, activator set 2 (AID 1053143); type: functional, cell-based
# [16] = ADAM10 inhibitors, peptide cleavage, dose response, biochemical, QFRET (AID 743254);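 note: ADAM10 enzyme with the DM2 quenched FRET peptide as substrate; EDANS fluorescence gain as the protease cuts the substrate; inhibitor potency against ADAM10 proteolytic activity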
# [17] = molecular target: T3, Disintegrin and metalloproteinase domain-containing protein 17 (Homo sapiens, UniProt P78536); assay: exosite inhibitors of ADAM17, dose response, biochemical (AID 743260)
# T3 sequence (P78536 whole entry, the tested form may be a part): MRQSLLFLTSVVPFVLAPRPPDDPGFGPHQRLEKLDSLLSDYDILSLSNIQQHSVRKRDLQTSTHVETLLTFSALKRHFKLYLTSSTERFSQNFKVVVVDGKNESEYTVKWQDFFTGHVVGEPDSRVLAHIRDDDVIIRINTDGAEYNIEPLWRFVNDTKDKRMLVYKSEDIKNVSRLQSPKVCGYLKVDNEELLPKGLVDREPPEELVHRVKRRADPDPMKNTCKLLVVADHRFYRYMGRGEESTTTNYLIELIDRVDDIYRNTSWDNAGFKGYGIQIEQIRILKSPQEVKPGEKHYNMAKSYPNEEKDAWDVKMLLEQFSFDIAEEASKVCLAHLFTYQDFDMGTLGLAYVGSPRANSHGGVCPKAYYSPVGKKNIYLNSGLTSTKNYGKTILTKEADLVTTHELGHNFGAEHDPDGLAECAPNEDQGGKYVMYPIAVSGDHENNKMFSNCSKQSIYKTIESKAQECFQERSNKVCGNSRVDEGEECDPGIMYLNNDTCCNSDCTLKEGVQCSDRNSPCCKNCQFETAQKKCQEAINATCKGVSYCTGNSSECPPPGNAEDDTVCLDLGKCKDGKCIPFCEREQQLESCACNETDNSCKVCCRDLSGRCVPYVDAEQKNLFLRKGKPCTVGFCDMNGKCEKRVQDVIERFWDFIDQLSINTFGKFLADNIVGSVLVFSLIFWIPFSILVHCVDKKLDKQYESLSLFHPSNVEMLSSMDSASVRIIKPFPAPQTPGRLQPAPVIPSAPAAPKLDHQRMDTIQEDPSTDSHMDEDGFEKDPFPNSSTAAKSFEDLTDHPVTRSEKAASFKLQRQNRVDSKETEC
# [18] = molecular target: T3, Disintegrin and metalloproteinase domain-containing protein 17; assay: ADAM17 protease inhibitors, dose response, counter-screen for ADAM10 exosite inhibitor project, biochemical, quenched FRET substrate (AID 743253)
# [19] = inhibitors of firefly luciferase expression or activity, dose response, H4 neuroglioma cells, luminescence (AID 1990); type: functional, cell-based
# [20] = tested on: BJ; assay: cytotoxicity toward BJ-TERT fibroblasts, dose response, cell-based, RAS-independent, luminescence (AID 1933); type: functional; settings: Homo sapiens
# [21] = Luminescence Cell-Based Dose Response HTS to Identify Inhibitors of 5'UTR Stem-Loop Driven Prion Protein mRNA Translation in H4 Neuroglioblastoma Cells. [Related pubchem assays: 1827 (Project Summary), 1813 (Primary HTS)]; type: functional
# [22] = inhibitors of SNCA 5'UTR-driven reporter translation, confirmation, H4 neuroglioma cells, luminescence (AID 1988); type: functional, cell-based
# [23] = tested on: BJ; assay: cells; type: functional, cell-based; settings: Homo sapiens
# [24] = tested on: BJ; assay: cytotoxicity toward BJ-TERT-LT-ST fibroblasts, dose response, cell-based, RAS-independent, luminescence (AID 1935); type: functional; settings: Homo sapiens;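 note: BJ fibroblasts immortalized with TERT plus LT and ST oncogenes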
# [25] = cytotoxicity toward DRD oncogenic fibroblasts, dose response, cell-based, non-viral oncogenic, luminescence (AID 1934); type: functional; settings: Homo sapiens
# [26] = tested on: BJ; assay: cytotoxicity toward Ras-transformed BJeLR fibroblasts, dose response, cell-based, alamar blue fluorescence, cherrypicked samples (AID 2631); type: functional; settings: Homo sapiens;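 note: confirmatory dose-response assay in RAS-dependent BJ fibroblasts engineered with TERT, LT and ST, with cytotoxicity read by fluorescence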
# [27] = molecular target: Paired box protein Pax-8 (Homo sapiens, UniProt Q06710); assay: inhibitors of PAX8-driven TPO luciferase reporter, dose response, RMG-I cells, cherry-pick (AID 687027); type: functional, cell-based;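 note: luciferase reporter driven by Pax8 target thyroperoxidase promoter measured by SteadyGlo luminescence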
# Chain of Paired box protein Pax-8 (Q06710 whole entry): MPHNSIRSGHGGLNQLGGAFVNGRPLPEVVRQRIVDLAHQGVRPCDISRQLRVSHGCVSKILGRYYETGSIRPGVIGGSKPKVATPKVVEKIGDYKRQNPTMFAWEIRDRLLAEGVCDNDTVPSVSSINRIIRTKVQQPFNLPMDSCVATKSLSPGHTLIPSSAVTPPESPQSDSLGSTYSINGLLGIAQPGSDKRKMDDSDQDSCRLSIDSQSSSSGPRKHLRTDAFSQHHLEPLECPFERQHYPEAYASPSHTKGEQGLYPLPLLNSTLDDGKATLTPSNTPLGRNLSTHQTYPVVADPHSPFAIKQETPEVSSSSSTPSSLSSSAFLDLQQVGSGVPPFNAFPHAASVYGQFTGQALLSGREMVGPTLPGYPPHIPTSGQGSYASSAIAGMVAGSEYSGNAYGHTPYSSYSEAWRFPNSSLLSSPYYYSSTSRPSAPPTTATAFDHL
# [28] = PAX2 cell-based inhibition, dose response, selectivity assay for PAX8 inhibitor project, plate reader, dry powder samples (AID 743048); type: functional;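 note: HEK293 cells carrying a WT1 promoter luciferase reporter driven by expressed Pax2; potency is for inhibition of Pax2 driven reporter signal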
# [29] = cytotoxicity in COV362 ovarian cancer cells, dose response, cytotoxicity control for PAX8 inhibitor project, cell-based, plate reader, dry powder, SA12 (AID 743144); type: functional
# [30] = IOSE-T80 ovarian epithelial cell cytotoxicity, dose response, cytotoxicity control for PAX8 inhibitor project, plate reader, dry powder samples (AID 743045); type: functional, cell-based
# [31] = A2780 ovarian cancer cell cytotoxicity, dose response, cytotoxicity control, plate reader, dry powder samples (AID 743046); type: functional, cell-based
# [32] = NIH:OVCAR-3 ovarian cancer cell cytotoxicity, dose response, PAX8 inhibitor project, plate reader, dry powder samples (AID 743044); type: functional, cell-based
# [33] = PAX5 activity inhibitors, dose response, selectivity assay for PAX8 inhibitor project, cell-based, plate reader, dry powder samples (AID 743047); type: functional;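 note: HEK293 cells carrying a Pax5 driven CD19 promoter luciferase reporter; potency of inhibitors that lower reporter luminescence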
# [34] = IGROV1 ovarian cancer cell cytotoxicity, dose response, PAX8 inhibitor project, plate reader, dry powder samples (AID 743043); type: functional, cell-based; settings: IGROV-1
# [35] = cytotoxicity in OVCAR4 cells, dose response, cytotoxicity control for PAX8 inhibitor project, cell-based, plate reader, dry powder, SA11 (AID 743150); type: functional; settings: OVCAR-4
# [36] = cytotoxicity in COV434 cells, dose response, cytotoxicity control for PAX8 inhibitor project, cell-based, plate reader, dry powder, SA7 (AID 743145); type: functional
# [37] = cytotoxicity in OV-90 ovarian cancer cells, dose response, PAX8 inhibitor project, cell-based, plate reader, dry powder, SA8 (AID 743149); type: functional
# [38] = cytotoxicity dependent on PAX8, dose response, cell-based, plate reader, dry powder (AID 743049); type: functional
# [39] = miR-122 activators in hepatoma reporter cells, dose response, cell-based, Huh7 psiCHECK-miR122, Renilla luciferase, cherry-picked (AID 651956); type: functional;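 note: huh7 hepatoma cells stably carrying a psiCHECK-2 miR-122 sensor plasmid; renilla luciferase signal reporting endogenous miR-122 activity after 48 h compound exposure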
# [40] = HEK293T cytotoxicity, dose response, cytotoxicity control for miR-122 modulator project, cell-based, activator set, cherry-pick (AID 720690); type: functional;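 note: HEK293T human cells scored for general mammalian cytotoxicity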
# [41] = cytotoxicity in OVCAR8 ovarian cancer cells, dose response, PAX8 project, cell-based, plate reader, dry powder samples (AID 743197); type: functional; settings: OVCAR-8
# [42] = molecular target: Scavenger receptor class B member 1 (Mus musculus, UniProt Q61009); assay: inhibitors of SR-BI-mediated HDL uptake, dose response, cell-based, ldlA[mSR-BI] CHO, DiI fluorescence, dry powder, set 10 (AID 624029); type: functional
# Chain of Scavenger receptor class B member 1 (Q61009 whole entry): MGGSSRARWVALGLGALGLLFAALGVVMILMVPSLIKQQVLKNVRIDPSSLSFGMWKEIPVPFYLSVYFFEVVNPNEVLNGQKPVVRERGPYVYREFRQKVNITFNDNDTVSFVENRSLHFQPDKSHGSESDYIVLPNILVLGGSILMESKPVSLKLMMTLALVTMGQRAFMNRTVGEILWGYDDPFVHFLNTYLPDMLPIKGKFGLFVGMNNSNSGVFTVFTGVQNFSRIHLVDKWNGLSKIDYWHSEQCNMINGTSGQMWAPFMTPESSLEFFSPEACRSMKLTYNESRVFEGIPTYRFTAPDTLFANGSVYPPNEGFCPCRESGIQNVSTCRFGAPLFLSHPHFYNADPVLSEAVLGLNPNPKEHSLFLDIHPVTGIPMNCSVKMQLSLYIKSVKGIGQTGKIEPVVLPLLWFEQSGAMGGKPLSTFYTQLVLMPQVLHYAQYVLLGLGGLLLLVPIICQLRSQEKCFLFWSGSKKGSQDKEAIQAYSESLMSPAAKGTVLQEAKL
structure (smiles),measurement,setting,value
Cc1cccn2c(=O)c3cc(C(=O)NC(C)c4ccccc4)c(=N)n(CCCn4ccnc4)c3nc12 (stereo not drawn),AC50,[1],4.29 µM (active)
same,AC50,[2],> 52 µM (inactive)
same,AC50,[3],> 52 µM (inactive)
Cc1c(C(=O)N2CCN(Cc3ccc4c(c3)OCO4)CC2)sc2ncnc(N3CCN(c4ccccc4F)CC3)c12,EC50,[4],0.487 µM (active)
same,EC50,[5],> 60 µM (not active)
same,IC50,[6],6.85 µM (active)
Cc1ccccc1C(=O)N1CCN(c2ccc(NC(=O)CSc3ccc(Cl)cc3)cc2)CC1,AC50,[7],0.378 µM (active)
same,AC50,[8],4.23 µM (active)
same,AC50,[9],44.1 µM (active)
same,AC50,[10],25.2 µM (active)
same,IC50,[11],39.9 µM (inactive)
same,IC50,[12],1.6 µM (active)
same,AC50,[13],6.91 µM (active)
same,AC50,[14],38.8 µM (active)
Cc1cc2nn(-c3ccc(Cl)cc3)nc2cc1N,AC50,[15],21.4 µM (active)
O=C(NCC1CCCO1)C(c1cccs1)N(Cc1ccccc1)C(=O)c1ccc(-c2ccccc2)[nH]1 (stereo not drawn),IC50,[16],> 69.5 µM (inactive)
same,IC50,[17],> 69.5 µM (inactive)
same,IC50,[18],> 69.5 µM (inactive)
CCOc1ccc2c(c1)C(C)=CC(C)(C)N2S(=O)(=O)c1ccc(NC(C)=O)cc1,EC50,[19],0.199 µM (active)
same,EC50,[20],0.642 µM (active)
same,EC50,[21],0.162 µM (active)
same,EC50,[22],0.129 µM (active)
same,EC50,[23],1.54 µM (active)
same,EC50,[24],0.428 µM (inconclusive)
same,EC50,[25],0.722 µM (active)
same,EC50,[26],< 0.104 µM (active)
same,AC50,[27],1.61 µM (active)
same,AC50,[28],31.8 µM (active)
same,AC50,[29],4.1 µM (active)
same,AC50,[30],2.54 µM (active)
same,AC50,[31],4.06 µM (active)
same,AC50,[32],41.1 µM (active)
same,AC50,[33],89.2 µM (active)
same,AC50,[34],15.9 µM (active)
same,AC50,[35],1.83 µM (active)
same,AC50,[36],1.53 µM (active)
same,AC50,[37],2.6 µM (active)
same,AC50,[38],12.1 µM (active)
C[C@@H]1CN([C@@H](C)CO)C(=O)Cc2cc(NC(=O)Nc3ccc(C(F)(F)F)cc3)ccc2O[C@H]1CN(C)Cc1ccc(Oc2ccccc2)cc1,AC50,[39],19.9 µM (active)
same,AC50,[27],10.3 µM (active)
same,AC50,[40],19.9 µM (active)
same,AC50,[41],39.9 µM (active)
CC(C)NC(=O)Nc1ccc2c(c1)C(=O)N([C@@H](C)CO)C[C@@H](C)[C@H](CN(C)S(=O)(=O)c1ccc(Cl)cc1)O2,AC50,[42],0.154 µM (active)

# From ChEMBL document CHEMBL1201862, “PubChem BioAssay data set” (2004)
